The target in one data set is HIV-1 protease (Human immunodeficiency virus type 1 group M subtype B, UniProt P04585). The note with it: Phase I studies; cited from earlier work.
For data set [1] the following is noted: preclinical; po and IV; cited from earlier work.
A further data set concerns HIV-1. Conditions: clinical use; cited from earlier work.
The next data set has as its system HIV-1-LAI strain. Put plainly: in vitro anti-HIV-1 activity in PHA-P-activated PBMCs, RT activity in cell supernatants. Format: cell-based.
A further data set has as its system duck HBV. Conditions: preclinical; cited from earlier work.

Experimental for HIV-1-LAI strain: Healthy PBMCs were separated from a buffy-coat of one HIV-seronegative blood donor by Ficoll-Hypaque density gradient centrifugation. PBMCs were activated by 1 μg/ml phytohemagglutinin (PHA-P) for two days in cell culture medium A: RPMI 1640 supplemented with 10% heat-inactivated (+56° C., 45 min.) fetal calf plasma (FCS), 2 mM L-glutamine and a tri-antibiotic mixture (penicillin, streptomycin, neomycin; PSN). After these two days, cells were washed and cultured at one million cell per milliliter in cell culture medium B: cell culture medium A supplemented with 20 IU/ml recombinant human interleukin-2. Cells were maintained at +37° C. in a 5% CO2-air humidified atmosphere.
Experiments were repeated twice with cells of other blood donors. In total, three independent experiments were performed. […]
200,000 PHA-P-activated PBMCs were added to each well of 96-well microplates. […] At day 7, RT activity were determined in cell supernatants, and potential cytotoxic effects of drugs and drug combinations were evaluated by microscopic observation.
Viral replication was measured by determining reverse transcriptase (“RT”) activity in cell supernatants using Retro-Sys® kit, according to manufacturer's recommendations (Innovagen, Lund, Sweden).
Effective doses were calculated using cumulative RT activities with Chou J. and T C. microcomputer software.

With `Cc1cccc(C)c1OCC(=O)N[C@@H](Cc1ccccc1)[C@@H](O)C[C@H](Cc1ccccc1)NC(=O)[C@H](C(C)C)N1CCCNC1=O` [ABT-378], at HIV-1 protease, the “potency relative to ritonavir” value was “^9Phase I Studies show ABT-378 to be 10X more potent than ritonavir; see PharmaProjects sections J5A & J5Z”.
With `Nc1nc(N)c2ncn([C@H]3CO[C@@H](CO)O3)c2n1` [DAPD, (−)-beta-D-2,6,-diaminopurine dioxolane], the “activity by route of administration” value in data set [1] was “^10Preclinical; active po and IV; DAPD is a prodrug of another dioxolene purine, DXG. See PharmaProjects, sections J5A & J5Z”.
On to `CC(C)c1nc(CN(C)C(=O)N[C@H](C(=O)N[C@@H](Cc2ccccc2)C[C@H](O)[C@H](Cc2ccccc2)NC(=O)OCc2cncs2)C(C)C)cs1` [Ritonavir], for which the adverse effects entry in the data set on HIV-1 is listed as “troublesome adverse effects”.
For the compound “PEG12000-IFN-alfa2b: conjugate of interferon alfa-2b with polyethylene glycol of average molecular weight 12000 via a urethane linkage”, the “effect on the in vitro anti HIV-1 activity of ribavirin” value in the data set on HIV-1-LAI strain (PHA-P-activated PBMCs infected with HIV-1-LAI) was “increased the in vitro anti HIV-1 activity of ribavirin”. Also, in the data set on HIV-1-LAI strain (PHA-P-activated PBMCs, doses corresponding to plasmatic concentrations observed in animals and man), the “inhibition of HIV replication in vitro” value is given as “inhibited the HIV replication”.
As for “beta-L-2′, 3′-dicleoxy-5-fluorocytidene [Beta-L-FD4]”, the “activity in duck HBV model” value in the data set with duck HBV is given as “^9Preclinical; active in duck HBV model; see PharmaProjects, sections J5A & J5Z”.

These data come from US20020182179A1, “HIV Therapy” (priority 1999, published 2002).
